Experimental data published in ChEMBL document CHEMBL4507326, “Data for DCP probe TP-030-2” (2021).
pIC50, pKi: −log10 of the molar value.

Columns and labels:
[1] = molecular target: Alpha-2B adrenergic receptor (Homo sapiens, UniProt P18089); test: GPCRScan assay: inhibition of Alpha2B; set-up: radioligand conc. used [nm] 1.5 – 2.0, parental cells HEKT
[2] = molecular target: Gamma-aminobutyric acid type B receptor subunit 1 (Homo sapiens) (UniProt Q9UBS5); test: Inhibition of GABAB1A at compound concentration of 10.0 uM in the Eurofins-Panlabs radioligand binding assay (Eurofins_assay_228610); set-up: ligand concentration 4 nM; settings: Compound concentration 10.0 uM
[3] = molecular target: voltage-gated sodium channel, site 2 (Rattus norvegicus, UniProt F1LQQ7+O08562+O88420+O88457+P04774+P04775+P08104+P15389+P15390+Q62968); test: Inhibition of Sodium Channel, Site 2 at 10 µM in the Eurofins-Panlabs radioligand binding assay (Eurofins_assay_279510); format: protein assay; set-up: ligand concentration 5 nM, non-specific ligand with concentration 100 µM Veratridine, incubation time 60 min, incubation temperature 37 °C; settings: male, Wistar, rat whole brain (except cerebellum) membranes, probe [3H] Batrachotoxinin, compound concentration 10 uM
[4] = molecular target: Substance-P receptor (Homo sapiens) (UniProt P25103); test: Inhibition of Tachykinin NK1 at 10 µM in the Eurofins-Panlabs radioligand binding assay (Eurofins_assay_255520); set-up: ligand concentration 0.8 nM; settings: Compound concentration 10.0 uM
[5] = molecular target: Sigma non-opioid intracellular receptor 1 (Homo sapiens) (UniProt Q99720); test: Sigma 1 Eurofins-Panlabs radioligand binding assay; set-up: ligand concentration 15 nM; settings: Compound concentration 10.0 uM
[6] = molecular target: RAC-beta serine/threonine-protein kinase (Homo sapiens, UniProt P31751); test: Akt2 [PKBbeta(AKT2CGY1)] Takeda global kinase panel
[7] = molecular target: Bone morphogenetic protein receptor type-2 (Homo sapiens, UniProt Q13873); test: BMPR2(BMR2LGN1) Takeda global kinase panel
[8] = molecular target: Mitotic checkpoint serine/threonine-protein kinase BUB1 (Homo sapiens, UniProt O43683); test: Bub1(BUB1LGRL) Takeda global kinase panel
[9] = molecular target: Cyclin-dependent kinase 13 (Homo sapiens, UniProt Q14004); test: CHED(CD13PHS1) Takeda global kinase panel
[10] = molecular target: Casein kinase I isoform epsilon (Homo sapiens, UniProt P49674); test: CK1epsilon(CS1ELGI5) Takeda global kinase panel
Ephrin type-B receptor 3 = Ephrin type-B receptor 3 (Homo sapiens, UniProt P54753); test: EphB3(EPB3LGRJ) Takeda global kinase panel
[11] = molecular target: Receptor tyrosine-protein kinase erbB-4 (Homo sapiens, UniProt Q15303); test: HER4(ERB4CGF1) Takeda global kinase panel
[12] = molecular target: Cyclin-G-associated kinase (Homo sapiens, UniProt O14976); test: GAK(GAK1PGF1) Takeda global kinase panel
[13] = molecular target: Tyrosine-protein kinase HCK (Homo sapiens, UniProt P08631); test: HCK(HCK1LGF1) Takeda global kinase panel
[14] = molecular target: Homeodomain-interacting protein kinase 1 (Homo sapiens, UniProt Q86Z02); test: HIPK1(HIP1LGF1) Takeda global kinase panel
[15] = molecular target: Inhibitor of nuclear factor kappa-B kinase subunit beta (Homo sapiens, UniProt O14920); test: IKKbeta(IKBBLHY1) Takeda global kinase panel
Insulin receptor = Insulin receptor (Homo sapiens, UniProt P06213); test: InSR(INSRLGY1) Takeda global kinase panel
[16] = molecular target: Mitogen-activated protein kinase kinase kinase 14 (Homo sapiens, UniProt Q99558); test: NIK(M314LGP1) Takeda global kinase panel
[17] = molecular target: Mitogen-activated protein kinase kinase kinase 7 (Homo sapiens, UniProt O43318); test: TAK1(M3K7CHY1) Takeda global kinase panel
[18] = molecular target: MAP kinase-activated protein kinase 5 (Homo sapiens, UniProt Q8IW41); test: MAPKAPK5(MPK5LGN1) Takeda global kinase panel
[19] = molecular target: Microtubule-associated serine/threonine-protein kinase 1 (Homo sapiens, UniProt Q9Y2H9); test: MAST1(MAS1LGE5) Takeda global kinase panel
[20] = molecular target: Maternal embryonic leucine zipper kinase (Homo sapiens, UniProt Q14680); test: MELK(MELKLGF1) Takeda global kinase panel
[21] = molecular target: Platelet-derived growth factor receptor beta (Homo sapiens, UniProt P09619); test: PDGFRbeta(PDGBIHC1) Takeda global kinase panel
[22] = molecular target: Serine/threonine-protein kinase PLK1 (Homo sapiens, UniProt P53350); test: PLK1(PLK1LGY1) Takeda global kinase panel
[23] = molecular target: Calcium/calmodulin-dependent protein kinase type 1B (Homo sapiens, UniProt Q6P2M8); test: CaMK1beta(PNCKLGRI) Takeda global kinase panel
[24] = molecular target: cAMP-dependent protein kinase catalytic subunit beta (Homo sapiens, UniProt P22694); test: PKAbeta(PRCBLGF1) Takeda global kinase panel
[25] = molecular target: Serine/threonine-protein kinase RIO2 (Homo sapiens, UniProt Q9BVS4); test: RIOK2(RIO2LGF1) Takeda global kinase panel
[26] = molecular target: Receptor-interacting serine/threonine-protein kinase 3 (Homo sapiens, UniProt Q9Y572); test: RIPK3(RIP3IGRI) Takeda global kinase panel
[27] = molecular target: Serine/threonine-protein kinase 32C (Homo sapiens, UniProt Q86UX6); test: YANK3(S32CLGI1) Takeda global kinase panel
[28] = molecular target: Testis-specific serine/threonine-protein kinase 1 (Homo sapiens, UniProt Q9BXA7); test: TSSK1(TS1BLGP1) Takeda global kinase panel
[29] = molecular target: Non-receptor tyrosine-protein kinase TYK2 (Homo sapiens, UniProt P29597); test: Tyk2(TYK2LGF1) Takeda global kinase panel
[30] = molecular target: Phosphatidylinositol 4,5-bisphosphate 3-kinase catalytic subunit alpha isoform (Homo sapiens, UniProt P42336); test: PI3KCA(PI3ACGR1) Takeda global kinase panel
[31] = molecular target: Phosphatidylinositol 4,5-bisphosphate 3-kinase catalytic subunit beta isoform (Homo sapiens, UniProt P42338); test: PIK3CB(PI3BCGRK) Takeda global kinase panel
[32] = molecular target: Phosphatidylinositol 4,5-bisphosphate 3-kinase catalytic subunit delta isoform (Homo sapiens, UniProt O00329); test: PI3KCD(PI3DCGRK) Takeda global kinase panel
[33] = molecular target: GABA-A receptor; anion channel (Rattus norvegicus) (UniProt O09028+P15431+P18506+P18508+P19969+P20236+P23574+P23576+P28471+P28473+P30191+P62813+P63079+P63138+Q91ZM7+Q9ES14); settings: Compound concentration 10.0 uM
[34] = molecular target: Histamine H1 receptor (Homo sapiens) (UniProt P35367); settings: Compound concentration 10.0 uM
[35] = molecular target: Histamine H4 receptor (Homo sapiens) (UniProt Q9H3N8); settings: Compound concentration 10.0 uM
[36] = molecular target: Muscarinic acetylcholine receptor M1 (Homo sapiens) (UniProt P11229); settings: Compound concentration 10.0 uM
[37] = molecular target: Adenosine receptor A1 (Homo sapiens) (UniProt P30542); settings: Compound concentration 10.0 uM
[38] = molecular target: Sodium-dependent dopamine transporter (Homo sapiens) (UniProt Q01959); settings: Compound concentration 10.0 uM
[39] = molecular target: Sodium-dependent noradrenaline transporter (Homo sapiens) (UniProt P23975); settings: Compound concentration 10.0 uM

Alpha-2B adrenergic receptor, sequence (P18089 whole entry): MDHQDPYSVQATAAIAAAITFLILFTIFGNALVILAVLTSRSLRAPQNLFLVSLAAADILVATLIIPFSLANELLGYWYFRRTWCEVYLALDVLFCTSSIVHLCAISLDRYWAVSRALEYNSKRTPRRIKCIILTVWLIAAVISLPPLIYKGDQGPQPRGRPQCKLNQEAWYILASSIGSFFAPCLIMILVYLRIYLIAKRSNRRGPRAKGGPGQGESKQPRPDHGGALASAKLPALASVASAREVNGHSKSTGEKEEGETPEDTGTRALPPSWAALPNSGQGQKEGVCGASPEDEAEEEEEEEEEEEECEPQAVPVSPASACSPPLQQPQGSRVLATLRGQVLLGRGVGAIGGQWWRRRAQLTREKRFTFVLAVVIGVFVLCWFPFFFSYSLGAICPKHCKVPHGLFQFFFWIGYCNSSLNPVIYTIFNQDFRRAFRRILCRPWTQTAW
Sigma non-opioid intracellular receptor 1 (Homo sapiens), sequence (Q99720 whole entry): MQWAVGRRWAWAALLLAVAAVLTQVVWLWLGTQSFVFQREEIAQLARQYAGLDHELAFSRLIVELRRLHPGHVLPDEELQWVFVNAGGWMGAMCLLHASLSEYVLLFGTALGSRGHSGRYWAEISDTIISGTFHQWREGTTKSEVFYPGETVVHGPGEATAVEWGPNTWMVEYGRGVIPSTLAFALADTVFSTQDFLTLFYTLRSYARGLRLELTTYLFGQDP
Receptor tyrosine-protein kinase erbB-4, sequence (Q15303 whole entry): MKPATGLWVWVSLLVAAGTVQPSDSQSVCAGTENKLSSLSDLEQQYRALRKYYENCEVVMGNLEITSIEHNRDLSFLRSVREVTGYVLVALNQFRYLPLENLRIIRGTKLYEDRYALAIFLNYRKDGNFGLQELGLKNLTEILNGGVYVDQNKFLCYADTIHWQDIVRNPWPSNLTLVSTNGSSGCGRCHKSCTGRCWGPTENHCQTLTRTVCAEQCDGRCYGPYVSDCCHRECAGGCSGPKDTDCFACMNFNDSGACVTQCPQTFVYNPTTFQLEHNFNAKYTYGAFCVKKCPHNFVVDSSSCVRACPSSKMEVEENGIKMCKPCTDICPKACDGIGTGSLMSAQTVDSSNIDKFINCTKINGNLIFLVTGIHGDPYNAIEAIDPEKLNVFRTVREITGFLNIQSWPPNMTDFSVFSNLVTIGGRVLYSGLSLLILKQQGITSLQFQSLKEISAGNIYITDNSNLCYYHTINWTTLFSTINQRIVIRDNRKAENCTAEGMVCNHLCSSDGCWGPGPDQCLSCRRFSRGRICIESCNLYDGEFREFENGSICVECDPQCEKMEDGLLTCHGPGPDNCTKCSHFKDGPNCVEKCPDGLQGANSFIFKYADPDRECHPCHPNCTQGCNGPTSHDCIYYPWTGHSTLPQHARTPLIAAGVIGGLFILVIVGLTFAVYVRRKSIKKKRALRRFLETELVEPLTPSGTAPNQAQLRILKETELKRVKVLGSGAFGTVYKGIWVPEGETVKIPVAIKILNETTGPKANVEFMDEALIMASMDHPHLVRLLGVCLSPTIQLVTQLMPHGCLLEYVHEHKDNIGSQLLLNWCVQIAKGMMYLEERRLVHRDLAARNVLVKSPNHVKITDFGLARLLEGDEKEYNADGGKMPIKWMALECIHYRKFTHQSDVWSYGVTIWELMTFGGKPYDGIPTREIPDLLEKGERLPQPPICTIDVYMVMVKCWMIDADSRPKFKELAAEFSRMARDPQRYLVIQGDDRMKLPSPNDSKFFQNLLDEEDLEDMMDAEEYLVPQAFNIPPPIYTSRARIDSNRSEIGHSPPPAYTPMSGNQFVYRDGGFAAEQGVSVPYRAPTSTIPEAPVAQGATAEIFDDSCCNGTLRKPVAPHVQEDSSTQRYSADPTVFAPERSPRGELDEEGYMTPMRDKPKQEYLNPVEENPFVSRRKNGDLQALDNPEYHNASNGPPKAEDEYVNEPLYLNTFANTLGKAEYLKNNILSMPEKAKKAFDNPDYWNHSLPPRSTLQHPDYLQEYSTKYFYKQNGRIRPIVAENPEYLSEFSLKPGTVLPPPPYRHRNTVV
Phosphatidylinositol 4,5-bisphosphate 3-kinase catalytic subunit beta isoform, sequence (P42338 whole entry, canonical isoform): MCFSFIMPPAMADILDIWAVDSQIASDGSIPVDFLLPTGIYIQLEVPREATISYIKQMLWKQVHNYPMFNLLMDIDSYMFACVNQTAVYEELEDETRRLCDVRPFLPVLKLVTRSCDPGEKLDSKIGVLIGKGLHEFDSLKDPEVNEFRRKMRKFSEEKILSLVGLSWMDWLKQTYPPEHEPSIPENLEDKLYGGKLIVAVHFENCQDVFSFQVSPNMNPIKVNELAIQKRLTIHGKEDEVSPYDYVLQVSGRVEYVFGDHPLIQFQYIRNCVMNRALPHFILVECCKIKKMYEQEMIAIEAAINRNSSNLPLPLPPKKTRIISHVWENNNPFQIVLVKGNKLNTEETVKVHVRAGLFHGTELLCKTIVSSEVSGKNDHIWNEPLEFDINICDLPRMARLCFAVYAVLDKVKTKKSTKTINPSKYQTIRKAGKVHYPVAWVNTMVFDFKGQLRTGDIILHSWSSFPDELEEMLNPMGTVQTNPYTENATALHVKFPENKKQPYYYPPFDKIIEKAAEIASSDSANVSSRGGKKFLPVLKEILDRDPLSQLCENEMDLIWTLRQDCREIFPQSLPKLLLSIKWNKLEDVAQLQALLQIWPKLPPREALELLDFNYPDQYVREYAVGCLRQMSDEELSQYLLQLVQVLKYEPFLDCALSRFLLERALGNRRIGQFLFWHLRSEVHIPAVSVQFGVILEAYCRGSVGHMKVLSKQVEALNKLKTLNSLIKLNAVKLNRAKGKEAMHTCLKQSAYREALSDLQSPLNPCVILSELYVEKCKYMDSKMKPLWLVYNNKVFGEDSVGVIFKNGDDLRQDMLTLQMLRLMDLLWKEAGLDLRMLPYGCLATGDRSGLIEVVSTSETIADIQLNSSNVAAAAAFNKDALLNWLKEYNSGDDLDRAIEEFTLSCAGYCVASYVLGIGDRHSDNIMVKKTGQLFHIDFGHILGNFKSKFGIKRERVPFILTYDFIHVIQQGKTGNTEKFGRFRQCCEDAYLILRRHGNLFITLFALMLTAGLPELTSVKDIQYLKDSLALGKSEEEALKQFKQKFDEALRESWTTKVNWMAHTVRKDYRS
Ephrin type-B receptor 3, sequence (P54753 whole entry): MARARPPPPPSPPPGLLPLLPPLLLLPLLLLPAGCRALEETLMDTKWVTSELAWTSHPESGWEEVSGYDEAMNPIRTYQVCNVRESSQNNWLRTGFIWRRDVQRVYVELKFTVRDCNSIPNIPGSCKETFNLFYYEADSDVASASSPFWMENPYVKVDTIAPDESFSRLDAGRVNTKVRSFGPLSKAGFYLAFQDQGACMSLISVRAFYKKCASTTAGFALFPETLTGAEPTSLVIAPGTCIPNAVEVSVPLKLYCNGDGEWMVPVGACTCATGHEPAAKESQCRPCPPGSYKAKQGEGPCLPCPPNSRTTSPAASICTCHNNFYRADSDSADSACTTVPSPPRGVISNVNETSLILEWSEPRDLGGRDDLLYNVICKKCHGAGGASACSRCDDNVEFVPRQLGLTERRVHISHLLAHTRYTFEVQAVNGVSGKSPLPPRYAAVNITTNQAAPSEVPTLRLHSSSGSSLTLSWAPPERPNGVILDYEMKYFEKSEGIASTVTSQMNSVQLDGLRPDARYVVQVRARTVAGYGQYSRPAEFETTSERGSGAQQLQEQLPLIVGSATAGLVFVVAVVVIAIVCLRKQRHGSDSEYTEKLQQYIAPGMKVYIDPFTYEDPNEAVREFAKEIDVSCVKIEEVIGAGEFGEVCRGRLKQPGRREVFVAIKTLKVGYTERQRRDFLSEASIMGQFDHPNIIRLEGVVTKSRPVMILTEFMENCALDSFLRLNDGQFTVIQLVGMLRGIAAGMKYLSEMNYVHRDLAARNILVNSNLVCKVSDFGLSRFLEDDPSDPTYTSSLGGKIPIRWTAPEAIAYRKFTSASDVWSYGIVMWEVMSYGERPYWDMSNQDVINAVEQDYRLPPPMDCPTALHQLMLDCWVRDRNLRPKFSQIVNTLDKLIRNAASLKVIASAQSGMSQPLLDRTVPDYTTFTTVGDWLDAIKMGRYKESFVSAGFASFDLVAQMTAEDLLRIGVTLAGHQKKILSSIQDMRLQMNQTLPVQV
RAC-beta serine/threonine-protein kinase, sequence (P31751 whole entry): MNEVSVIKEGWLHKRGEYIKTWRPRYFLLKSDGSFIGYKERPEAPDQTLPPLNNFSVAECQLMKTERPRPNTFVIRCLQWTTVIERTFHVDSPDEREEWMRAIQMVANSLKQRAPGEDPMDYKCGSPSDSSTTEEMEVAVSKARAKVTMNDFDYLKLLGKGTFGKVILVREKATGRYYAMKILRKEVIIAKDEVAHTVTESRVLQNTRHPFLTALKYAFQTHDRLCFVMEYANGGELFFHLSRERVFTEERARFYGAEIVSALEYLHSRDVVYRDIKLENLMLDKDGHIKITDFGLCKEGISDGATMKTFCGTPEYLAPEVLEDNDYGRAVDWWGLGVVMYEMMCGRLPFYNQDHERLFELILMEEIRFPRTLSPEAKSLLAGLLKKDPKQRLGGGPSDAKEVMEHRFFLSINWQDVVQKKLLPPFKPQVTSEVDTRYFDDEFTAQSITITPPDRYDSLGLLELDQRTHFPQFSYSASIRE
Histamine H4 receptor (Homo sapiens), sequence (Q9H3N8 whole entry): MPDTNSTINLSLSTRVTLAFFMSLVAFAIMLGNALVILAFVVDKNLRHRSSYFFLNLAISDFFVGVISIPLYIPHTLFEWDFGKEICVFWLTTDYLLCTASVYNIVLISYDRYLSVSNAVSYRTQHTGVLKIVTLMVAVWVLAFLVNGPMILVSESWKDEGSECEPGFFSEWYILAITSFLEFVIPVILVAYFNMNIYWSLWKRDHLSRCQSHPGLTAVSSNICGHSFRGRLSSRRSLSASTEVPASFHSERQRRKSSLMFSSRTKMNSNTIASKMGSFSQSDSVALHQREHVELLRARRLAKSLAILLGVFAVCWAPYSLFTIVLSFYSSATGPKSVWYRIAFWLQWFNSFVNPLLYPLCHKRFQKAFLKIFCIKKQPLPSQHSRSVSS

CN1C(=O)[C@@H](N2CCc3c(nn(Cc4ccccc4)c3Br)C2=O)COc2ccccc21 [TP-030-2]
5.54: pKi ([1]; read-out: Ki)
inactive: inhibition [2] 1% | inhibition [4] 17% | inhibition [5] 13% | inhibition [33] 8.81% | inhibition [34] 9.99% | inhibition [35] 14.7% | inhibition [36] 21.6% | inhibition [37] 11% | inhibition [38] 35% | inhibition [39] 27%
42% (not active): inhibition at 60 min, 10 µM [3]
2820 nM: Ki ([1]; read-out: pKi (converted))
6.00: pIC50 [6] | pIC50 [7] | pIC50 [8] | pIC50 [9] | pIC50 [10] | pIC50 (Ephrin type-B receptor 3) | pIC50 [11] | pIC50 [12] | pIC50 [13] | pIC50 [14] | pIC50 [15] | pIC50 (Insulin receptor) | pIC50 [16] | pIC50 [17] | pIC50 [18] | pIC50 [19] | pIC50 [20] | pIC50 [21] | pIC50 [22] | pIC50 [23] | pIC50 [24] | pIC50 [25] | pIC50 [26] | pIC50 [27] | pIC50 [28] | pIC50 [29] | pIC50 [30] | pIC50 [31] | pIC50 [32]
